From paper PMC8766756, “Insights on Cancer Cell Inhibition, Subcellular Activities, and Kinase Profile of Phenylacetamides Pending 1H-Imidazol-5-One Variants” (Frontiers in Pharmacology, 2022)

Assays:
[1] = test system: MCF7 breast cancer cell line; test: SRB cytotoxicity assay; format: cell-based, human; settings: for IC50: Homo sapiens, MCF7, 72 h, MCF7, SRB, 72 h, read-out: IC50 ± SEM MCF7
Protocol: (§1) The compounds were screened for their anticancer activities against a variety of cancer cell lines. The cytotoxic effect of the compounds was evaluated using the sulforhodamine B (SRB) cytotoxicity assay for breast cancer line (MCF7) and prostate cancer cell line (PC3) ([Vichai and Kirtikara, 2006]; [Rana et al., 2021]) and 3-(4,5-dimethylthiazol-2-yl)-2,5-diphenyl-2H-tetrazolium bromide (MTT) assay for the colon cancer (HCT116) cell lines ([El-Huneidi et al., 2020]). The CellTiter-Blue® cell viability assay was performed on the various leukemia cell lines, HL60, NB4, and KG1a cells ([Akter et al., 2019]). The IC50 values are illustrated in Table 1.
(§2) MCF7 (breast), PC3 (prostate), and HCT116 (colon) cancer cell lines were obtained from ATCC, Manassas, VA, USA. Cells were grown in Roswell Park Memorial Institute-1640 (RPMI-1640) medium (Thermo Fisher Scientific, Inc., Waltham, MA, USA), supplemented with 10% heat inactivated fetal bovine serum (FBS), 50 units/mL of penicillin, and […] of streptomycin and maintained at 37°C in a humidified atmosphere containing 5% CO2. The cells were maintained as “monolayer culture” by serial subculturing.
(§3) Exponentially growing MCF7 and PC3 cells were collected using 0.25% Trypsin-EDTA and were then seeded in 96-well plates at a density of 1,000–2,000 cells/well in 10% FBS and penicillin/streptomycin supplemented RPMI-1640 medium. After 24 h, the cells were treated with different concentrations of the test compounds and incubated for 72 h at 37°C in a humidified atmosphere containing 5% CO2. Next, the cells were fixed by trichloroacetic acid (TCA) (10% final concentration in wells) directly to the wells and incubated for 1 h at 4°C, then the cells were washed with distilled water five times to remove excess TCA, media, serum proteins, and metabolites, followed by air drying. After that, the fixed cells were stained with 0.4% SRB dissolved in 1% acetic acid for 10 min at room temperature, and excess stain was removed by quickly rinsing with 1% acetic acid. The residual acetic acid was removed completely by air drying the plates for 24 h, and the dye was solubilized with Tris buffer (pH = 7.4, 10 mM) for 5 min on a shaker at 1,600 rpm. The optical density of each well was measured spectrophotometrically at 564 nm with an ELISA microplate reader (ChroMate-4300, FL, USA). The IC50 values were calculated according to the equation for Boltzman sigmoidal concentration–response curve using the nonlinear regression fitting models (GraphPad®, Prism Version 5).

[2] = test system: PC3 prostate cancer cell line; test: SRB cytotoxicity assay; format: cell-based, human; settings: Homo sapiens, 72 h, read-out: IC50 ± SEM PC3
Protocol: as §1, §2, §3

[3] = test system: HCT116 colon cancer cell line; test: MTT antiproliferative assay; format: cell-based; settings: Homo sapiens, HCT-116; HCT116, MTT, 72 h; read-out: IC50 ± SEM HCT116
Protocol: as §1, §2
The test compounds were evaluated for antiproliferative activity using the MTT viability assay against the HCT116 cell line. The cells were seeded in triplicate in 96-well plates at a density of 10 × 10^3 cells/mL in a total volume of 200 µL per well. 0.1% of DMSO was used as a vehicle control. Each well was treated with 2 µL of test compound, which had been preprepared as stock solutions in ethanol to furnish the concentration range of the study, 0.1–50 μM, and re-incubated for a further 72 h at 37°C in a humidified atmosphere containing 5% CO2. The culture medium was then removed, and the cells were washed with 100 µL of PBS, and 100 µL of MTT was added, to reach a final concentration of 1 mg/ml of MTT. The cells were incubated for 3 h in darkness at 37°C. After removal of MTT solution, solubilization was initiated through the addition of […] of DMSO, and the cells were maintained at room temperature in darkness for 20 min to ensure thorough color diffusion before reading the absorbance with a microplate reader at 570 nm. The results were expressed as percentage viability relative to vehicle control (100%). The dose–response curves were plotted, and the IC50 values (concentration of drug resulting in 50% reduction in cell survival) were obtained using the commercial software package Prism (GraphPad® Software, Inc., La Jolla, CA, USA). All the experiments were repeated in at least three independent experiments.

HL60 leukemia cell line = test: CellTiter-Blue cell viability assay; format: cell-based; settings: Homo sapiens, HL-60, 48 h, read-out: IC50 ± SEM HL60
Protocol: as §1
HL60, NB4, and KG1a were purchased from CLS Cell Line Service GmbH (Eppelheim, Germany). All cell lines were cultured in RPMI-1640 medium supplemented with 10% FBS (Thermo Fisher Scientific) and ciprofloxacin (10 μg/ml; Cipla Limited; Mumbai, India), at 37°C with 5% CO2 in a humidified incubator.
The CellTiter-Blue® Cell Viability assay was acquired from Promega Corporation (Madison, WI, USA). The cell viability assay was performed as follows: the cells (10^4/well) were incubated with a concentration gradient of the test compounds ranging from 0.01 to 100 μM, in 96-well plates for 48 h at 37°C. Subsequently, 20 µL of the CellTiter-Blue® Cell Viability reagent was added to each well and incubated for an additional 2 h for the development of fluorescence. The fluorescence emission was measured at 590 nm using the SpectraMax® i3x Multi-Mode Microplate Reader (Molecular Devices, LLC; San Jose, CA, USA.) and plotted against the drug concentrations to determine the IC50 of the test compounds.

Src kinase = molecular target: Src kinase; set-up: method as in Antonarakis et al., 2013; settings: ref Antonarakis et al., 2013; read-out: Src kinase inhibition IC50; cited from earlier work
tubulin polymerization = test system: tubulin polymerization; set-up: method as in earlier work; settings: ref Hangauer, 2007; Smolinski et al., 2018; Markham and Duggan, 2021; read-out: tubulin polymerization inhibition IC50; cited from earlier work

| melting point [°C] | IC50 [3] [µM] | IC50 (HL60 leukemia cell line) [µM] | SMILES | IC50 [1] [µM] | times less active than 4c (KIM-161) ([1]; on MCF7 and PC3 cells) | IC50 [2] [µM] | activity relative to KIM-161 ([1]; phenyl instead of methyl, Table 1) | IC50 (Src kinase) [µM] | IC50 (tubulin polymerization) [µM] |
| --- | --- | --- | --- | --- | --- | --- | --- | --- | --- |
| 189 to 200 |  |  | COc1ccc(C=C(NC(C)=O)C(=O)Nc2ccc(CC(=O)NCc3ccccc3)cc2)cc1 (stereo in doubt) [Compound 5, (E)-2-acetamido-N-(4-(2-(benzylamino)-2-oxoethyl)phenyl)-3-(4-methoxyphenyl) acrylamide] | 44.3 ± 9.2 | 20–40 times | 41.1 ± 9.55 |  |  |  |
| 164 to 165 |  |  | CC1=N/C(=C\c2ccccc2)C(=O)N1c1ccc(CC(=O)NCc2ccccc2)cc1 [Compound 4a, (Z)-N-Benzyl-2-(4-(4-benzylidene-2-methyl-5-oxo-4,5-dihydro-1H-imidazol-1-yl)phenyl)acetamide] | 11.6 ± 2.01 |  | 1.67 ± 0.66 |  |  |  |
| 209 to 211 | > 50 |  | CC1=N/C(=C\c2ccc(Cl)cc2)C(=O)N1c1ccc(CC(=O)NCc2ccccc2)cc1 [Compound 4b, (Z)-N-Benzyl-2-(4-(4-(4-chlorobenzylidene)-2-methyl-5-oxo-4,5-dihydro-1H-imidazol-1-yl)phenyl)acetamide] | 20.8 ± 1.35 |  | 6.87 ± 0.41 |  |  |  |
|  | 6.13 ± 1.35 | 1.44 ± 0.07 | COc1cc(/C=C2\N=C(C)N(c3ccc(CC(=O)NCc4ccccc4)cc3)C2=O)ccc1O [Compound 4d, (Z)-N-Benzyl-2-(4-(4-(4-hydroxy-3-methoxybenzylidene)-2-methyl-5-oxo-4,5-dihydro-1H-imidazol-1-yl)phenyl)acetamide] | 9.48 ± 1.16 |  | 5.83 ± 1.44 |  |  |  |
| 218 to 219 |  |  | O=C(Cc1ccc(N2C(=O)/C(=C/c3ccccc3)N=C2c2ccccc2)cc1)NCc1ccccc1 [Compound 4e, (Z)-N-Benzyl-2-(4-(4-benzylidene-5-oxo-2-phenyl-4,5-dihydro-1H-imidazol-1-yl)phenyl)acetamide] | 34.9 ± 8.08 |  | 41.7 ± 2.99 |  |  |  |
| 218 to 220 |  |  | O=C(Cc1ccc(N2C(=O)/C(=C/c3ccc(Cl)cc3)N=C2c2ccccc2)cc1)NCc1ccccc1 [Compound 4f, (Z)-N-Benzyl-2-(4-(4-(4-chlorobenzylidene)-5-oxo-2-phenyl-4,5-dihydro-1H-imidazol-1-yl)phenyl)acetamide] | 44.2 ± 8.67 |  | 74.2 ± 12.3 |  |  |  |
| 193 |  |  | COc1ccc(/C=C2\N=C(c3ccccc3)N(c3ccc(CC(=O)NCc4ccccc4)cc3)C2=O)cc1 [Compound 4g, (Z)-N-Benzyl-2-(4-(4-(4-methoxybenzylidene)-5-oxo-2-phenyl-4,5-dihydro-1H-imidazol-1-yl)phenyl)acetamide] | 32.1 ± 3.98 |  | 38.7 ± 5.01 | less than one-tenth |  |  |
| 109 to 112 |  |  | COc1cc(/C=C2\N=C(c3ccccc3)N(c3ccc(CC(=O)NCc4ccccc4)cc3)C2=O)ccc1O [Compound 4h, (Z)-N-Benzyl-2-(4-(4-(4-hydroxy-3-methoxybenzylidene)-5-oxo-2-phenyl-4,5-dihydro-1H-imidazol-1-yl)phenyl)acetamide] | 35.1 ± 4.57 |  | 37.5 ± 15.4 |  |  |  |
|  |  |  | O=C(Cc1ccc(-c2ccc(OCCN3CCOCC3)cc2)cn1)NCc1ccccc1 [KX2-391, Tirbanibulin] |  |  |  |  | 0.025 | 0.25 |
